Assays:
[1] = test system: premenstrual syndrome (PMS) symptoms; test: Case reports of subjects with premenstrual syndrome taking I3C capsules; assay type: in vivo, human
Procedure: Capsules containing 100 to 300 mg of 1H-indole-3-methanol (I3C™ from Designed Nutritional Products, Orem, Utah, U.S.) were made by placing that amount of 1H-indole-3-methanol into gelatin capsules. Capsules containing 200 mg of 1H-indole-3-methanol (I3C™ from Designed Nutritional Products, Orem, Utah, U.S.) were made by placing that amount of 1H-indole-3-methanol into gelatin capsules. Subject A, commonly suffered from fatigue, moodiness, and bluish circles beneath their eyes prior to menstruation. During menses, which typically lasted for 7-10 days, they experienced menstrual cramping which required ibuprofen for relief. Subject A had taken I3C™ for three menstrual cycles. […] Subject B had taken I3C™ for one menstrual cycle. Their PMS symptoms prior to taking I3C™ included extreme fatigue, frequent migraine headaches, bloating, moodiness, and severe menstrual cramps. They started taking I3C™ with no knowledge of its effects or benefits. […] Subject C had been diagnosed and treated for endometriosis. Their PMS symptoms included fatigue, heavy blood flow (menorrhagia), severe menstrual cramps, and menses of approximately 10 days. Subject C had taken I3C™ for six cycles. […] Subject D, had taken I3C™ for ½ months and noticed a rapid change in their PMS symptoms.

menopausal symptoms = test: Case report of a subject with menopausal symptoms taking I3C capsules; assay type: in vivo, human; settings: Subject E
Procedure: Capsules containing 100 to 300 mg of 1H-indole-3-methanol (I3C™ from Designed Nutritional Products, Orem, Utah, U.S.) were made by placing that amount of 1H-indole-3-methanol into gelatin capsules. […] After the hysterectomy, Subject E had menopausal symptoms including hot flashes, occasional sweating profusion, grogginess after a full night's sleep, and almost continuous irritable bowel syndrome. Subject E started taking four 100 mg capsules of I3C™ per day, two capsules in the morning and two capsules in the late afternoon. […] Their hot flashes and excessive sweating disappeared after taking a few doses of I3C™.

[2] = Reactivity/stability of 1H-indole-3-methanol in solvent, sunlight and heat (HPLC); assay type: physicochemical
Procedure: Relatively pure 1H-indole-3-methanol (I3C™ from Designed Nutritional Products, Orem, Utah, U.S.) in a water solution was prepared for HPLC analysis. One sample was diluted with water and the other was diluted with methanol. […] In the course of manufacturing and formulating dietary supplements containing 1H-indole-3-methanol, it was observed that the carbinol in the three position is extremely reactive. […] In the course of heating at 60° C., 99% of the present 1H-indole-3-methanol will disappear from HPLC chromatograms, being replaced by as many as 40 or 50 different derived compounds, virtually all of them identified as containing an indole component. More detailed studies have shown that one of the first compounds to appear in a sample of 1H-indole-3-methanol undergoing heat treatment is ([…], a “dimer” of 1H-indole-3-methanol.

[3] = Subject C, endometriosis, six cycles

SMILES: OCc1c[nH]c2ccccc12 [I3C™, 1H-indole-3-methanol]
- PMS symptoms (fatigue, moodiness, bluish circles beneath eyes, menstrual cramping) ([1]; Subject A, I3C taken for three menstrual cycles): the above symptoms were alleviated
- duration of menses ([1]; Subject A, three menstrual cycles, typically 7-10 days before): approximately 4 days
- PMS symptoms (extreme fatigue, migraine headaches, bloating, moodiness, severe menstrual cramps) ([1]; Subject B, within one menstrual cycle): experienced only mild fatigue and their remaining symptoms were alleviated
- fatigue ([1]; Subject C, endometriosis, I3C taken for six cycles): ceased
- menstrual blood flow [1, 3]: decreased substantially
- severity of menstrual cramps [1, 3]: decreased
- PMS symptoms after starting I3C again ([1]; Subject C, restart after withdrawal): their symptoms were alleviated
- duration of menses ([1]; Subject C, six cycles, approximately 10 days before): approximately 5 days
- PMS symptoms after stopping I3C for one menstrual cycle ([1]; Subject C, withdrawal for one cycle): previous PMS symptoms returned
- PMS symptoms (bloating, headaches) ([1]; Subject D, I3C taken for ½ months): less bloating and reduced headaches
- bowel, sleep and energy symptoms (menopausal symptoms; four 100 mg capsules per day for one month): bowel regularity, less sleep disturbances, and a steady energy level throughout the day
- hot flashes and excessive sweating (menopausal symptoms; partial hysterectomy, four 100 mg capsules per day, after a few doses): disappeared
- 1H-indole-3-methanol disappearing from HPLC chromatograms on heating ([2]; heating at 60° C.): 99%
- stability in the presence of sunlight ([2]; sunlight): change color in just a few hours
- HPLC peaks after dilution with methanol (reaction to methyl ether) ([2]; water solution diluted with methanol, by the time of injection): two peaks of about the same magnitude
- HPLC peaks after dilution with water ([2]; water solution diluted with water): only one peak
